These results are taken from publication PMC7738283, “Discovery of orally active chalcones as histone lysine specific demethylase 1 inhibitors for the treatment of leukaemia” (Journal of Enzyme Inhibition and Medicinal Chemistry, 2020).

Data set [1] addresses T1, LSD1 (Homo sapiens, UniProt O60341).
T1 construct: pET-28b-LSD1 (full length) was transfected into BL21 (DE); inferred from the pET-28b vector and Ni-NTA purification; made in house; host or cells: E. coli BL21 (DE)
Put plainly: LSD1 enzyme inhibition assay (recombinant LSD1, fluorescence). As to conditions: for IC50: in vitro. The data set is classed as biochemical.
Protocol: The inhibition of LSD1 activity was evaluated according to reported references [23, 24]. pET-28b-LSD1 (full length) was transfected into BL21 (DE). Then, the protein was induced with 0.25 mmol/L IPTG following sonication and purified with Ni-NTA (Qiagen, Tubingen, Germany), Resource Q (GE, Pittsburgh, PA, USA) and Sephacryl S-200 HR (GE, Pittsburgh, PA, USA). The fluorescence intensity was read using EnVision Plate Reader (PerkinElmer, Waltham, MA, USA) to calculate the inhibition rate. […] The inhibitory activities of CDK1 and CDK2 were obtained according to the reported reference [26].

The target in data set [2] is T2, MAO-A (Homo sapiens, UniProt P21397).
T2 construct: purchased Active Motif 31502
T2 sequence (P21397 1-527): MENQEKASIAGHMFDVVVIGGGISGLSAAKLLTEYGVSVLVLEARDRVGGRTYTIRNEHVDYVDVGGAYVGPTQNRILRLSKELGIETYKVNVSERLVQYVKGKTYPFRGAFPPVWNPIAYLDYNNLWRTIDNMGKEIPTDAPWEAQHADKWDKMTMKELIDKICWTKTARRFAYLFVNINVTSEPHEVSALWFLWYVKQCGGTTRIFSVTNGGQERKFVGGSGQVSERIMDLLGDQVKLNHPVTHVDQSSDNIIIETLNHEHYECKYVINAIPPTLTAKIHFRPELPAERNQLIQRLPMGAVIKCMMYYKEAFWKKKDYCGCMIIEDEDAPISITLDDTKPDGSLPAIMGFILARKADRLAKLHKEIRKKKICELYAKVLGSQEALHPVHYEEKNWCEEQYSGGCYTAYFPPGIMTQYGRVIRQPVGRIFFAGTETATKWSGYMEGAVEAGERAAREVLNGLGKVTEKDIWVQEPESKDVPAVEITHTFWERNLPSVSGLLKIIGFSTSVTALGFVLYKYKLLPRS
The data set can be described thus: MAO-A inhibition assay (MAO-Glo kit). The data set is classed as biochemical. As to conditions: in vitro. The procedure:
(§1) The inhibition of LSD1 activity was evaluated according to reported references. pET-28b-LSD1 (full length) was transfected into BL21 (DE). Then, the protein was induced with 0.25 mmol/L IPTG following sonication and purified with Ni-NTA (Qiagen, Tubingen, Germany), Resource Q (GE, Pittsburgh, PA, USA) and Sephacryl S-200 HR (GE, Pittsburgh, PA, USA). The fluorescence intensity was read using EnVision Plate Reader (PerkinElmer, Waltham, MA, USA) to calculate the inhibition rate. The MAO-A and MAO-B were purchased from Active Motif (Cat#31502, Cat#31503, Carlsbad, CA, USA). Biochemical Kits were purchased from Promega (MAO-Glo Assay, Madison, WI, USA). The inhibitory activities of MAO-A and MAO-B were obtained according to the reported reference. The inhibitory activities of CDK1 and CDK2 were obtained according to the reported reference.

Data set [3] concerns the target T3, MAO-B (Homo sapiens, UniProt P27338).
T3 construct: purchased Active Motif 31503
T3 sequence (P27338 1-520): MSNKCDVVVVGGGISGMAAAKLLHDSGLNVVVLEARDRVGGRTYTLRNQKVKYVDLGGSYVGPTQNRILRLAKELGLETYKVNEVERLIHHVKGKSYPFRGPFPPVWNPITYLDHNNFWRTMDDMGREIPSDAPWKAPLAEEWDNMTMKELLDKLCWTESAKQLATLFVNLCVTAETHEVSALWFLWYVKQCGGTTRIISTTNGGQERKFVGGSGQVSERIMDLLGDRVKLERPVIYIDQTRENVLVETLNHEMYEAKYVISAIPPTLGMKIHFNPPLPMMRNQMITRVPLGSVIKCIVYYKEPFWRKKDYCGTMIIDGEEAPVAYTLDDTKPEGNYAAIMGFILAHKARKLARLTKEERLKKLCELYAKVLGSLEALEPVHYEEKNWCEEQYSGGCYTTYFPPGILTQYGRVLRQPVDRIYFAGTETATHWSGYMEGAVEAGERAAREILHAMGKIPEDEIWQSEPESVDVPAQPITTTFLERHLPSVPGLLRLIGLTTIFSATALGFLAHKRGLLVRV
The data set can be described thus: MAO-B inhibition assay (MAO-Glo kit). Type of data set: biochemical. As to conditions: in vitro; MAO-AB [sic]. Here is the method: as §1

Regarding `O=C(CSC(=S)N1CCN(Cc2ccccc2)CC1)Nc1ccc(C(=O)/C=C/c2ccccc2F)cc1` [D7, (E)-2-((4–(3-(2-Fluorophenyl)acryloyl)phenyl)amino)-2-oxoethyl-4-benzylpiperazine-1-carbodithioate], the half-inhibitory concentration (IC50) – broadly, the concentration at which inhibition is half-maximal – in data set [1] was 3.27 ± 0.13 µM; in data set [2] it was more than 20 µM; in data set [3], more than 20 µM.

As for `CCN1CCN(C(=S)SCC(=O)Nc2ccc(C(=O)/C=C/c3ccc(F)cc3)cc2)CC1` [D1, (E)-2-((4–(3-(4-Fluorophenyl)acryloyl)phenyl)amino)-2-oxoethyl-4-ethylpiperazine-1-carbodithioate], the melting point (in general, the temperature of the solid-liquid transition) lay in the range of 182 to 184 °C. The half-maximal inhibitory concentration (IC50) in data set [1] came to 11.3 ± 0.13 µM. The molecule also had a half-maximal inhibitory concentration (IC50) in data set [2] of more than 20 µM. In data set [3], this molecule had an IC50 of more than 20 µM.

Regarding `O=C(CCl)Nc1ccc(C(=O)/C=C/c2ccc(F)cc2)cc1` [C4], the half-maximal inhibitory concentration (IC50) in data set [1], in data set [2] and in data set [3] was more than 20 µM each time.

Molecule `O=C(CCl)Nc1ccc(C(=O)/C=C/c2ccccc2F)cc1` [C3, (E)-2-Chloro-N-(4–(3-(2-fluorophenyl)acryloyl)phenyl)acetamide] gave a melting point of 167 to 169 °C. Further, the half-inhibitory concentration (IC50) in data set [1] came to 15.4 ± 0.28 µM. The molecule further registered an IC50 in data set [2] of more than 20 µM. The molecule further yielded an IC50 in data set [3] of more than 20 µM.

On to `CCN1CCN(C(=S)SCC(=O)Nc2ccc(C(=O)/C=C/c3cccc(F)c3)cc2)CC1` [D5, (E)-2-((4–(3-(3-Fluorophenyl)acryloyl)phenyl)amino)-2-oxoethyl-4-ethylpiperazine-1-carbodithioate], for which the melting point was 136 to 138 °C. In data set [1], the 50% inhibitory concentration (IC50) is 2.29 ± 0.35 µM. The molecule also returned an IC50 in data set [2] of more than 20 µM. In data set [3], this molecule registered a half-maximal inhibitory concentration (IC50) of more than 20 µM.

In the case of `CN1CCN(C(=S)SCC(=O)Nc2ccc(C(=O)/C=C/c3cccc(F)c3)cc2)CC1` [D4, (E)-2-((4–(3-(3-Fluorophenyl)acryloyl)phenyl)amino)-2-oxoethyl-4-methylpiperazine-1-carbodithioate], the results for the half-inhibitory concentration (IC50) in data set [1], in data set [2] and in data set [3] were 6.03 ± 0.17 µM, more than 20 µM and more than 20 µM, respectively.

Take `Cc1ccc(Cn2cc(CSC(=S)N3CCN(C(=O)OC(C)(C)C)CC3)nn2)cc1` [Dithiocarbamate 26, reference compound]: the IC50 in data set [2] and in data set [3] was more than 20 µM throughout.

`O=C(CCl)Nc1ccc(C(=O)/C=C/c2ccccc2)cc1` [C1, (E)-2-Chloro-N-(4-cinnamoylphenyl)acetamide] came in with a melting point of 145 to 147 °C. The IC50 in data set [1] was more than 20 µM. For the same molecule, in data set [2], the IC50 is more than 20 µM. In data set [3], this molecule returned a concentration for half-maximal inhibition (IC50) of more than 20 µM.

Turning to `CCN1CCN(C(=S)SCC(=O)Nc2ccc(C(=O)/C=C/c3ccccc3)cc2)CC1` [D3, (E)-2-((4-Cinnamoylphenyl)amino)-2-oxoethyl-4-ethylpiperazine-1-carbodithioate], the melting point fell in the range of 181 to 183 °C. Moreover, the “fold activity loss against LSD1 (fluorine replaced with hydrogen)” value in data set [1] (D3 vs. D5) is listed as “over 6 fold”. Besides, the IC50 in data set [1] was 13.9 ± 0.18 µM. In data set [2], this molecule came in with a half-maximal inhibitory concentration (IC50) of more than 20 µM. In data set [3], this molecule came in with a half-inhibitory concentration (IC50) of more than 20 µM.

With `CN1CCN(C(=S)SCC(=O)Nc2ccc(C(=O)/C=C/c3ccccc3)cc2)CC1` [D2, (E)-2-((4-Cinnamoylphenyl)amino)-2-oxoethyl-4-methylpiperazine-1-carbodithioate], the IC50 is 9.35 ± 0.14 µM in data set [1], more than 20 µM in data set [2] and more than 20 µM in data set [3].

The molecule `O=C(CCl)Nc1ccc(C(=O)/C=C/c2cccc(F)c2)cc1` [C2, (E)-2-Chloro-N-(4–(3-(3-fluorophenyl)acryloyl)phenyl)acetamide] showed a melting point of 156 to 158 °C. For the same molecule, the half-inhibitory concentration (IC50) in data set [1] amounted to 19.7 ± 0.67 µM. Also, the IC50 in data set [2] was more than 20 µM. Further, the concentration for half-maximal inhibition (IC50) in data set [3] is more than 20 µM.

With `Nc1ccc(C(=O)/C=C/c2ccccc2F)cc1` [Chalcone 4, reference compound], the IC50 in data set [1], in data set [2] and in data set [3] was more than 20 µM in each case.
